Experimental data as given in ChEMBL document CHEMBL5620342, “Recent advances of novel fourth generation EGFR inhibitors in overcoming C797S mutation of lung cancer therapy” (Eur J Med Chem, 2023).

What was measured:
[1] = molecular target: Epidermal growth factor receptor (Homo sapiens, UniProt P00533); assay: Inhibition of wild type EGFR (unknown origin) by ELISA analysis
[2] = Inhibition of EGFR T790M/C797S double mutant (unknown origin); set-up: species or system Homo sapiens
[3] = molecular target: T1, Epidermal growth factor receptor (Homo sapiens, UniProt P00533, C797S/L858R/T790M); assay: Inhibition of EGFR L858R/T790M/C797S mutant (unknown origin) using TK-substrate preincubated with enzyme for 30 mins followed by substrate for 10 mins by HTRF assay
T1 sequence (P00533 25-1210 T790M/C797S/L858R limits assumed): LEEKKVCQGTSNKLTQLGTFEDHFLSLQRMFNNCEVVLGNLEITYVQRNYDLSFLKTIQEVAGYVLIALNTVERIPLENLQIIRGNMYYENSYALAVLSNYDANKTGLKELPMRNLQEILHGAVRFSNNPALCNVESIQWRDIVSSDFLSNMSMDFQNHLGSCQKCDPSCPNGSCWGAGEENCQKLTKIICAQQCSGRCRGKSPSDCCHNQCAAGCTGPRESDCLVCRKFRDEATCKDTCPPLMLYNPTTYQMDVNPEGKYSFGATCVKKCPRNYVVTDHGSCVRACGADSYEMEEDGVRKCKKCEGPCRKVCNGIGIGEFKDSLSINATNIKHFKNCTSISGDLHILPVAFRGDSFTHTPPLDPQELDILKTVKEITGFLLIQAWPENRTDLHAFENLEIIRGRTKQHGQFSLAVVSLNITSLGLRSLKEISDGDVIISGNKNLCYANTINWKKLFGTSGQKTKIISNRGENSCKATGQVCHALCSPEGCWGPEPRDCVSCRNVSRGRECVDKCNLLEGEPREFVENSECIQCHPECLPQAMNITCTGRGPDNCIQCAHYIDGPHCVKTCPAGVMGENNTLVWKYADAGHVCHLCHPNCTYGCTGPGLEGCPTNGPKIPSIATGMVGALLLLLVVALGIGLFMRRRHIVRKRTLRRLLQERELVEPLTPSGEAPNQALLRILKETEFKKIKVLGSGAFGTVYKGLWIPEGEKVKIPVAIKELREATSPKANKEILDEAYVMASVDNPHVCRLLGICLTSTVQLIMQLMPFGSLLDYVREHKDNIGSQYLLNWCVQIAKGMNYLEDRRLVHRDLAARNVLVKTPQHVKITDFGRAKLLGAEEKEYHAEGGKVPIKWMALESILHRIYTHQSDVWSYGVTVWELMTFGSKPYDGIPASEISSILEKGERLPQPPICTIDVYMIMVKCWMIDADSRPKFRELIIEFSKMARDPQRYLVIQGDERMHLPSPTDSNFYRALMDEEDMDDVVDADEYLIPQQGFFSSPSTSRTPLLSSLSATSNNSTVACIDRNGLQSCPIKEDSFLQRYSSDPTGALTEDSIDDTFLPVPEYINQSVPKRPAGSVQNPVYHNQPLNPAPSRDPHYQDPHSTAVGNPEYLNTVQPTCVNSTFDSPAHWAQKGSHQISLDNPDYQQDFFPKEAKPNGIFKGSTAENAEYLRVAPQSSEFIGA

[4] = molecular target: Epidermal growth factor receptor (Homo sapiens, UniProt P00533, T790M/C797S/L858R); assay: (§1) Inhibition of […]/T790M/C797S triple mutant (unknown origin) phosphorylation expressed in mouse BaF3 cells by HTRF assay; type: cell-based; conditions: baf3
Sequence of Epidermal growth factor receptor (Homo sapiens, UniProt P00533, T790M/C797S/L858R) (P00533 25-1210 T790M/C797S/L858R limits assumed): as above

BaF3 [5] = assay: Inhibition of cell proliferation of mouse BaF3 cells expressing EGFR Del19/T790M/C797S mutant (unknown origin); type: functional, cell-based
BaF3 [6] = assay: Cytotoxicity against mouse BaF3 cells expressing EGFR L858R mutant assessed as reduction in cell viability; type: functional, cell-based
BaF3 [7] = assay: Inhibition of EGFR phosphorylation in mouse BaF3 cells harboring EGFR L858R/T790M/C797S triple mutant at 10 uM by Western blotting analysis; type: cell-based
BaF3 [8] = assay: Cytotoxicity against mouse BaF3 cells harboring EGFR L858R/T790M/C797S mutant assessed as reduction in cell viability incubated for 96 hrs by CellTiter-Glo assay; type: functional, cell-based; conditions: BaF3, 96 h
[9] = Oral bioavailability in CD-1 mouse at 3 mg/kg measured after 24 hrs by LC-MS/MS analysis; type: ADME, organism-based; conditions: in vivo
[10] = molecular target: T1, Epidermal growth factor receptor; assay: as §1; type: cell-based
BaF3 [11] = assay: Cytotoxicity against mouse BaF3 cells harboring wild type EGFR assessed as reduction in cell viability incubated for 72 hrs by CellTiter-Glo assay; type: functional, cell-based; conditions: BaF3, 72 h
PC-9 [12] = assay: Antiproliferative activity against human PC-9 cells assessed as inhibition of cell growth incubated for 72 hrs by MTT assay; type: functional, cell-based; conditions: PC-9, 72 h
BaF3 [13] = assay: Antiproliferative activity against mouse BaF3 cells harboring EGFR L858R/T790M/C797S triple mutant after 72 hrs by resazurin dye-based fluorescence assay; type: functional, cell-based; conditions: BaF3, 72 h
PC-9 [14] = assay: Antiproliferative activity against human PC-9 cells expressing EGFR Del19 mutant assessed as inhibition of cell growth measured after 72 hrs by MTT assay; type: functional, cell-based; conditions: PC-9, 72 h
BaF3 [15] = assay: Cytotoxicity against mouse BaF3 cells harboring EGFR-Del19/T790M/C797S mutant assessed as cell growth inhibition measured after 72 hrs by CellTiter-Glo luminescent assay; type: functional, cell-based; conditions: BaF3, 72 h
BaF3 [16] = assay: Antiproliferative activity against mouse BaF3 cells harboring wild type EGFR assessed as reduction in cell growth; type: functional, cell-based
BaF3 [17] = assay: Cytotoxicity against mouse BaF3 cells harboring EGFR-Del19/T790M/C797S mutant assessed as cell growth inhibition measured after 96 hrs by CellTiter-Glo luminescent assay; type: functional, cell-based; conditions: BaF3, 96 h
PC-9 [18] = assay: Antitumor activity in OR-resistant human PC-9 cells xenografted in […] assessed as tumor growth inhibition at 60 mg/kg, po administered once daily for 14 days relative to control; type: functional; conditions: PC-9, 336 h, time 14 day, read-out: TGI
[19] = molecular target: T1, Epidermal growth factor receptor; assay: Inhibition of EGFR L858R/T790M/C797S triple mutant (unknown origin)
[20] = Inhibition of EGFR-C797S/T790M/del19 mutant in mouse BaF3 cells assessed as reduction in EGFR phosphorylation incubated for 6 hrs by Western blotting analysis; type: cell-based; conditions: BaF3, 6 h
PC-9 [21] = assay: Antitumor activity in OR-resistant human PC-9 cells xenografted in […] assessed as tumor growth inhibition at 30 mg/kg, po administered once daily for 14 days relative to control; type: functional; conditions: PC-9, 336 h, time 14 day, read-out: TGI
cells = conditions: Mus musculus, Ba/F3 EGFR-T790M/C797S/L858R
[22] = molecular target: T1, Epidermal growth factor receptor; assay: Inhibition of EGFR L858R/T790M/C797S triple mutant (unknown origin) expressed in Bac-to-Bac baculovirus expression system measured after 2 hrs by ELISA method
NIH3T3 = assay: Antiproliferative activity against mouse NIH3T3 cells expressing EGFR Del19/T790M/C797S mutant assessed as reduction in cell proliferation incubated for 72 hrs by MTT assay; type: functional, cell-based; conditions: NIH3T3, 72 h
A-431 [23] = assay: Cytotoxicity against human A-431 cells expressing wild type EGFR assessed as reduction in cell viability incubated for 96 hrs by CellTiter-Glo assay; type: functional, cell-based; conditions: A-431, 96 h
A-431 [24] = assay: Antiproliferative activity against human A-431 cells […] assessed as reduction in cell growth; type: functional, cell-based

Sequence of Epidermal growth factor receptor (Homo sapiens, UniProt P00533) (P00533 whole entry): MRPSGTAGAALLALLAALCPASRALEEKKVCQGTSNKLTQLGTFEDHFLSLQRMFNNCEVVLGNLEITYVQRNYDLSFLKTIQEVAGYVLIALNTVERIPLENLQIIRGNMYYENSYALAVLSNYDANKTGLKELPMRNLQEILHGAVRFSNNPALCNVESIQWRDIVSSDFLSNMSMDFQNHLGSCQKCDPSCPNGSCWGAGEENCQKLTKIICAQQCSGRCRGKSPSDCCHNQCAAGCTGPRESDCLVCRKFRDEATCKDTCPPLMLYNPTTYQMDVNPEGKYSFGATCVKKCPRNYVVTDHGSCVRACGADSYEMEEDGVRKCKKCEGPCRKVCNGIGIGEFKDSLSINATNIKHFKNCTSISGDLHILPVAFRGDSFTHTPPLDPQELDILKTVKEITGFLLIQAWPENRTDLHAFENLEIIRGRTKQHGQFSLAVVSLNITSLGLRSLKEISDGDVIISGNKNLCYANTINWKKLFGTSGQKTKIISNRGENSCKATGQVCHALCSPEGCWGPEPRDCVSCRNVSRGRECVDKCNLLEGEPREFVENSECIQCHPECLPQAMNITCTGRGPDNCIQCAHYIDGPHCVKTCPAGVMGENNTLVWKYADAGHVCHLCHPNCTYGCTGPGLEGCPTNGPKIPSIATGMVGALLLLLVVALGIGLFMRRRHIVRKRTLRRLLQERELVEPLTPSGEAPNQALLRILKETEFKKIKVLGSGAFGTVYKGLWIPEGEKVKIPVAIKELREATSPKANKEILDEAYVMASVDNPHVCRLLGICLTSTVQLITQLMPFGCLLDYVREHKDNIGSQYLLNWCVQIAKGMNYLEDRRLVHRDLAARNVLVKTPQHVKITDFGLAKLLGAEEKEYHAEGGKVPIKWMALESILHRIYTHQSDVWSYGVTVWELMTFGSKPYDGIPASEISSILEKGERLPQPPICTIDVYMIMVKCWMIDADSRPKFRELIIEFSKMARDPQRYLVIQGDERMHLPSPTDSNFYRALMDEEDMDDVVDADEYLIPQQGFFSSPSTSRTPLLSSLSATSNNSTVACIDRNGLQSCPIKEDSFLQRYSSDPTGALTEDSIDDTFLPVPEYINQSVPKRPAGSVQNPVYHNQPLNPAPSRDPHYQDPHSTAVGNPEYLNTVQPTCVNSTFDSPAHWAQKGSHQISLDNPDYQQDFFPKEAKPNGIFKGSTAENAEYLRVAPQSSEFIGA

SMILES: Cc1cc(N2Cc3ccccc3C2)nc2ccc(Cl)cc12
- IC50 [1]: 7.59 nM
- IC50 [2]: 10.8 nM
- IC50 [3]: 130 nM

SMILES: CNC(=O)c1cnc(Nc2ccnc(N3CCC(O)CC3)n2)cc1NC(C)C
- IC50 [4]: 266 nM

SMILES: COc1cc(N2CCN(C(C)=O)CC2)ccc1Nc1ncc(Cl)c(Nc2ccc(NCc3ccc(S(=O)(=O)F)cc3)cc2)n1
- IC50 (BaF3 [5]): > 10000 nM
- IC50 (BaF3 [6]): 110 nM

SMILES: N#Cc1ccc(O)c(-c2nc(NCc3cccnc3)c3ccccc3n2)c1
- inhibition (BaF3 [7]): 94.2%

SMILES: CCC(=O)N[C@H]1CC[C@@H](N2C(=O)N(c3ccccc3Cl)Cc3cnc(Nc4ccc(N5CCN(C)CC5)c(C)c4)nc32)CC1
- IC50 (BaF3 [5]): 316 nM
- IC50 (BaF3 [8]): 290 nM

SMILES: COc1cc(N2CCC(N3CCN(CCC#Cc4cccc5c4CN(C4CCC(=O)NC4=O)C5=O)CC3)CC2)ccc1Nc1ncc(Cl)c(Nc2ccccc2P(C)(C)=O)n1 (configuration not stated)
- bioavailability [9]: 62.3%

SMILES: CN1CCN(c2ccc(Nc3ncc4cc(CNc5ccccc5)n(C5CCCC5)c4n3)cc2)CC1
- IC50 [10]: 10 nM

SMILES: O=C(Nc1nccs1)C(c1cc(F)ccc1O)N1Cc2ccccc2C1=O (configuration not stated)
- IC50 (BaF3 [11]): > 10000 nM
- IC50 (BaF3 [8]): > 10000 nM

SMILES: Oc1ccccc1-c1nc(NCC2CCOC2)c2ccccc2n1 (configuration not stated)
- inhibition (BaF3 [7]): 91%

SMILES: c1ccc(-c2cc(N3Cc4ccccc4C3)nc3ccccc23)cc1
- IC50 [1]: 7.9 nM
- IC50 [2]: 11.2 nM
- IC50 [3]: 124 nM

SMILES: C=CC(=O)Nc1cc(Nc2nccc(-c3cn(C)c4ccccc34)n2)c(OC)cc1N(C)CCN(C)C [OSIMERTINIB]
- IC50 (PC-9 [12]): 4850 nM
- IC50 (BaF3 [13]): 4140 nM
- IC50 (PC-9 [14]): 80 nM
- IC50 (BaF3 [15]): 3380 nM

SMILES: CO[C@@H]1CCN(c2nccc(Nc3cc4c(C(C)C)ccc(N5C[C@H](CS(C)(=O)=O)[C@H]5C)c4cn3)n2)C[C@@H]1F [TIGOZERTINIB]
- IC50 (BaF3 [5]): 3.2 nM
- IC50 (BaF3 [8]): 4 nM

SMILES: Cc1cc(N2CCN(C(c3ccccc3)c3ccccc3)CC2)nc2ccc(Cl)cc12
- IC50 [1]: 7.92 nM
- IC50 [2]: 10.5 nM
- IC50 [3]: 136 nM

SMILES: COc1ccc(-c2c3c4cc(OCCCN(C)C)c(OCCCN(C)C)cc4oc(=O)c3n3ccc4cc(O)c(OC)cc4c23)cc1O
- IC50 (BaF3 [16]): 520 nM
- IC50 (BaF3 [17]): 127 nM

SMILES: CN1CCN(c2ccc(Nc3ncc(Cl)c(Nc4ccccc4P(C)(C)=O)n3)c(Br)c2)CC1
- inhibition in vivo at 60 mg/kg (PC-9 [18]): 137%
- IC50 (PC-9 [12]): 180 nM
- IC50 [19]: 3.1 nM
- IC50 [20]: 2.4 nM
- IC50 (BaF3 [13]): 120 nM
- IC50 (PC-9 [14]): 230 nM
- IC50 (BaF3 [15]): 90 nM
- inhibition in vivo at 30 mg/kg (PC-9 [21]): 83.5%

SMILES: COc1cc(N2CCN(CCCCCCCC(=O)N[C@@H](C(=O)N3C[C@@H](O)C[C@@H]3C(=O)N[C@H](C)c3ccc(-c4nc(C)cs4)cc3)C(C)(C)C)CC2)ccc1Nc1ncc(Cl)c(Nc2ccccc2P(C)(C)=O)n1
- IC50 (cells): 20 nM

SMILES: CC(C)n1c2cc(Nc3ccnc(-c4cnn(S(=O)(=O)C5CC5)c4)n3)ncc2c2c(OCC(F)(F)F)cc(N3CCN(C)CC3)cc21
- IC50 [22]: 0.28 nM
- IC50 (NIH3T3): 20 nM
- IC50 [10]: 0.25 nM
- IC50 (A-431 [23]): 1200 nM
- IC50 (A-431 [24]): 1200 nM
